Experimental data reported in US20230085307A1, “PYRIDAZINONE COMPOUND AND HERBICIDE” (NISSAN CHEMICAL CORPORATION, priority 2019, published 2023).

How the values were obtained:
barnyard grass [1] = assay: Test Example 3: herbicidal effect by foliage application, Wagner pot (Table 18, symbol H); type: in vivo, barnyard grass (Echinochloa crus-galli)
Outline: (§1)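 Plants were sown in alluvial soil held under 0.1–0.5 cm standing water and grown 14 days in a greenhouse at 25–30 °C. An emulsifiable formulation, water-diluted to the set dose, was then sprayed onto the foliage, and effects were scored three weeks later using previously defined criteria.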

Chinese sprangletop = assay: Test Example 3: herbicidal effect by foliage application, Wagner pot (Table 18, symbol D); type: in vivo, chinese sprangletop (Leptochloa chinensis)
Outline: as §1

rice flat sedge = assay: Test Example 3: herbicidal effect by foliage application, Wagner pot (Table 18, symbol E); type: in vivo, rice flat sedge (Cyperus iria)
Outline: as §1

southern crabgrass [2] = assay: Test Example 4: herbicidal effect by soil treatment (Table 19, symbol F); type: in vivo, southern crabgrass (Digitaria ciliaris)
Outline: (§2)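 Seeds were sown in sterilized diluvial soil and covered with about 1.5 cm of soil. An emulsion formulation diluted with water to a predetermined herbicide amount was sprayed evenly onto the soil surface. Plants grew in a greenhouse at 25° C. to 30° C., and the effect was scored three weeks after application using criteria from an earlier test.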

green foxtail [3] = assay: Test Example 4: herbicidal effect by soil treatment (Table 19, symbol G); type: in vivo, green foxtail (Setaria viridis)
Outline: as §2

barnyard grass [4] = assay: Test Example 4: herbicidal effect by soil treatment (Table 19, symbol H); type: in vivo, barnyard grass (Echinochloa crus-galli)
Outline: as §2

wild oat [5] = assay: Test Example 4: herbicidal effect by soil treatment (Table 19, symbol I); type: in vivo, wild oat (Avena fatua)
Outline: as §2

blackgrass [6] = assay: Test Example 4: herbicidal effect by soil treatment (Table 19, symbol J); type: in vivo, blackgrass (Alopecurus myosuroides)
Outline: as §2

Italian ryegrass [7] = assay: Test Example 4: herbicidal effect by soil treatment (Table 19, symbol K); type: in vivo, Italian ryegrass (Lolium multiflorum)
Outline: as §2

windgrass [8] = assay: Test Example 4: herbicidal effect by soil treatment (Table 19, symbol L); type: in vivo, windgrass (Apera spica-venti)
Outline: as §2

velvetleaf [9] = assay: Test Example 4: herbicidal effect by soil treatment (Table 19, symbol M); type: in vivo, velvetleaf (Abutilon theophrasti)
Outline: as §2

redroot pigweed [10] = assay: Test Example 4: herbicidal effect by soil treatment (Table 19, symbol N); type: in vivo, redroot pigweed (Amaranthus retroflexus)
Outline: as §2

lambsquarters [11] = assay: Test Example 4: herbicidal effect by soil treatment (Table 19, symbol O); type: in vivo, lambsquarters (Chenopodium album)
Outline: as §2

false cleavers = assay: Test Example 4: herbicidal effect by soil treatment (Table 19, symbol Q); type: in vivo, false cleavers (Galium spurium)
Excerpt: [Test Example 4] Herbicidal Effect Test by Soil Treatment
Sterilized diluvial soil was placed in a plastic box having a length of 21 cm, a width of 13 cm, and a depth of 7 cm. The seeds of each of southern crabgrass, green foxtail, barnyard grass, wild oat, blackgrass, Italian ryegrass, windgrass, velvetleaf, redroot pigweed, lambsquarters, chickweed, false cleavers, persian speedwell, corn, soybean, rice, wheat, beet, and rapeseed were sowed in a spot-like manner and covered with the soil having a thickness of about 1.5 cm. Subsequently, the emulsion agent of the compound of the present invention prepared according to Formulation Example 2 was diluted with water so as to achieve a predetermined herbicide amount, and the diluted emulsion agent was uniformly applied to the surface of the soil with a small-sized spray. The plastic box was placed in a greenhouse at 25° C. to 30° C. for growth of the plants. Three weeks after the herbicide application, the effect of the herbicide on each plant was evaluated according to the criteria of Test Example 1.

southern crabgrass [12] = assay: Test Example 5: herbicidal effect by foliage application, plastic box (Table 20, symbol F); type: in vivo, southern crabgrass (Digitaria ciliaris); conditions: foliage application, evaluated three weeks after application
Outline: (§3)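 Plants sown in sterilized diluvial soil and grown 14 days in a greenhouse at 25° C to 30° C, then sprayed on the foliage with the compound's emulsion diluted in water to a predetermined herbicide amount. Injury to weeds and crops scored three weeks after application on a visual rating scale.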

green foxtail [13] = assay: Test Example 5: herbicidal effect by foliage application, plastic box (Table 20, symbol G); type: in vivo, green foxtail (Setaria viridis); conditions: foliage application, evaluated three weeks after application
Outline: as §3

barnyard grass [14] = assay: Test Example 5: herbicidal effect by foliage application, plastic box (Table 20, symbol H); type: in vivo, barnyard grass (Echinochloa crus-galli); conditions: foliage application, evaluated three weeks after application
Outline: as §3

wild oat [15] = assay: Test Example 5: herbicidal effect by foliage application, plastic box (Table 20, symbol I); type: in vivo, wild oat (Avena fatua); conditions: foliage application, evaluated three weeks after application
Outline: as §3

blackgrass [16] = assay: Test Example 5: herbicidal effect by foliage application, plastic box (Table 20, symbol J); type: in vivo, blackgrass (Alopecurus myosuroides); conditions: foliage application, evaluated three weeks after application
Outline: as §3

Italian ryegrass [17] = assay: Test Example 5: herbicidal effect by foliage application, plastic box (Table 20, symbol K); type: in vivo, Italian ryegrass (Lolium multiflorum); conditions: foliage application, evaluated three weeks after application
Outline: as §3

windgrass [18] = assay: Test Example 5: herbicidal effect by foliage application, plastic box (Table 20, symbol L); type: in vivo, windgrass (Apera spica-venti); conditions: foliage application, evaluated three weeks after application
Outline: as §3

velvetleaf [19] = assay: Test Example 5: herbicidal effect by foliage application, plastic box (Table 20, symbol M); type: in vivo, velvetleaf (Abutilon theophrasti); conditions: foliage application, evaluated three weeks after application
Outline: as §3

redroot pigweed [20] = assay: Test Example 5: herbicidal effect by foliage application, plastic box (Table 20, symbol N); type: in vivo, redroot pigweed (Amaranthus retroflexus); conditions: foliage application, evaluated three weeks after application
Outline: as §3

lambsquarters [21] = assay: Test Example 5: herbicidal effect by foliage application, plastic box (Table 20, symbol O); type: in vivo, lambsquarters (Chenopodium album); conditions: foliage application, evaluated three weeks after application
Outline: as §3

chickweed = assay: Test Example 5: herbicidal effect by foliage application, plastic box (Table 20, symbol P); type: in vivo, common chickweed (Stellaria media); conditions: foliage application, evaluated three weeks after application
Outline: as §3

persian speedwell = assay: Test Example 5: herbicidal effect by foliage application, plastic box (Table 20, symbol R); type: in vivo, Persian speedwell (Veronica persica); conditions: foliage application, evaluated three weeks after application
Outline: as §3

[22] = amount of applied herbicide 320 g/ha
[23] = amount of applied herbicide 310 g/ha

COc1ccccc1-c1sc2ccc(C(F)(F)F)cc2c1-c1c(O)c(C)nn(C)c1=O [2-162]
herbicidal effect on H: barnyard grass (barnyard grass [1]; [22]): 3 (Herbicidal rate of 40% or more and less than 70%)
herbicidal effect on D: Chinese sprangletop (Chinese sprangletop; [22]): 0 (Herbicidal rate of 5% or less (almost no effect))
herbicidal effect on E: rice flat sedge (rice flat sedge; [22]): 3 (Herbicidal rate of 40% or more and less than 70%)
F: southern crabgrass, herbicidal effect rating (southern crabgrass [2]; [22]): 0 (Herbicidal rate of 5% or less (almost no effect))
G: green foxtail, herbicidal effect rating (green foxtail [3]; [22]): 3 (Herbicidal rate of 40% or more and less than 70%)
H: barnyard grass, herbicidal effect rating (barnyard grass [4]; [22]): 0 (Herbicidal rate of 5% or less (almost no effect))
I: wild oat, herbicidal effect rating (wild oat [5]; [22]): 0 (Herbicidal rate of 5% or less (almost no effect))
J: blackgrass, herbicidal effect rating (blackgrass [6]; [22]): 0 (Herbicidal rate of 5% or less (almost no effect))
K: Italian ryegrass, herbicidal effect rating (Italian ryegrass [7]; [22]): 0 (Herbicidal rate of 5% or less (almost no effect))
L: windgrass, herbicidal effect rating (windgrass [8]; [22]): 0 (Herbicidal rate of 5% or less (almost no effect))
M: velvetleaf, herbicidal effect rating (velvetleaf [9]; [22]): 0 (Herbicidal rate of 5% or less (almost no effect))
N: redroot pigweed, herbicidal effect rating (redroot pigweed [10]; [22]): 2 (Herbicidal rate of 20% or more and less than 40%)
O: lambsquarters, herbicidal effect rating (lambsquarters [11]; [22]): 1 (Herbicidal rate of 5% or more and less than 20%)
Q: false cleavers, herbicidal effect rating (false cleavers; [22]): 0 (Herbicidal rate of 5% or less (almost no effect))
herbicidal effect on F: southern crabgrass (criteria 0-5) (southern crabgrass [12]; 320 g/ha): 0 (Herbicidal rate of 5% or less (almost no effect))
herbicidal effect on G: green foxtail (criteria 0-5) (green foxtail [13]; 320 g/ha): 0 (Herbicidal rate of 5% or less (almost no effect))
herbicidal effect on H: barnyard grass (criteria 0-5) (barnyard grass [14]; 320 g/ha): 0 (Herbicidal rate of 5% or less (almost no effect))
herbicidal effect on I: wild oat (criteria 0-5) (wild oat [15]; 320 g/ha): 0 (Herbicidal rate of 5% or less (almost no effect))
herbicidal effect on J: blackgrass (criteria 0-5) (blackgrass [16]; 320 g/ha): 0 (Herbicidal rate of 5% or less (almost no effect))
herbicidal effect on K: Italian ryegrass (criteria 0-5) (Italian ryegrass [17]; 320 g/ha): 0 (Herbicidal rate of 5% or less (almost no effect))
herbicidal effect on L: windgrass (criteria 0-5) (windgrass [18]; 320 g/ha): 0 (Herbicidal rate of 5% or less (almost no effect))
herbicidal effect on M: velvetleaf (criteria 0-5) (velvetleaf [19]; 320 g/ha): 2 (Herbicidal rate of 20% or more and less than 40%)
herbicidal effect on N: redroot pigweed (criteria 0-5) (redroot pigweed [20]; 320 g/ha): 3 (Herbicidal rate of 40% or more and less than 70%)
herbicidal effect on O: lambsquarters (criteria 0-5) (lambsquarters [21]; 320 g/ha): 0 (Herbicidal rate of 5% or less (almost no effect))
herbicidal effect on P: chickweed (criteria 0-5) (chickweed; 320 g/ha): 5 (Herbicidal rate of 90% or more (almost completely withered))
herbicidal effect on R: persian speedwell (criteria 0-5) (persian speedwell; 320 g/ha): 2 (Herbicidal rate of 20% or more and less than 40%)

Cc1nn(C)c(=O)c(-c2c(-c3ccc(OC(F)F)cc3)sc3ccc(F)cc23)c1OC(=S)Oc1ccccc1 [2-297]
herbicidal effect on H: barnyard grass (barnyard grass [1]; [23]): 5 (Herbicidal rate of 90% or more (almost completely withered))
herbicidal effect on D: Chinese sprangletop (Chinese sprangletop; [23]): 0 (Herbicidal rate of 5% or less (almost no effect))
herbicidal effect on E: rice flat sedge (rice flat sedge; [23]): 5 (Herbicidal rate of 90% or more (almost completely withered))
herbicidal effect on F: southern crabgrass (southern crabgrass [2]; [23]): 3 (Herbicidal rate of 40% or more and less than 70%)
herbicidal effect on G: green foxtail (green foxtail [3]; [23]): 4 (Herbicidal rate of 70% or more and less than 90%)
herbicidal effect on H: barnyard grass (barnyard grass [4]; [23]): 4 (Herbicidal rate of 70% or more and less than 90%)
herbicidal effect on I: wild oat (wild oat [5]; [23]): 0 (Herbicidal rate of 5% or less (almost no effect))
herbicidal effect on J: blackgrass (blackgrass [6]; [23]): 3 (Herbicidal rate of 40% or more and less than 70%)
herbicidal effect on K: Italian ryegrass (Italian ryegrass [7]; [23]): 5 (Herbicidal rate of 90% or more (almost completely withered))
herbicidal effect on L: windgrass (windgrass [8]; [23]): 0 (Herbicidal rate of 5% or less (almost no effect))
herbicidal effect on M: velvetleaf (velvetleaf [9]; [23]): 5 (Herbicidal rate of 90% or more (almost completely withered))
herbicidal effect on N: redroot pigweed (redroot pigweed [10]; [23]): 5 (Herbicidal rate of 90% or more (almost completely withered))
herbicidal effect on O: lambsquarters (lambsquarters [11]; [23]): 5 (Herbicidal rate of 90% or more (almost completely withered))
herbicidal effect on Q: false cleavers (false cleavers; [23]): 0 (Herbicidal rate of 5% or less (almost no effect))
F: southern crabgrass, herbicidal effect (criteria 0-5) (southern crabgrass [12]; AAH 310 g/ha): 1 (Herbicidal rate of 5% or more and less than 20%)
G: green foxtail, herbicidal effect (criteria 0-5) (green foxtail [13]; AAH 310 g/ha): 5 (Herbicidal rate of 90% or more (almost completely withered))
H: barnyard grass, herbicidal effect (criteria 0-5) (barnyard grass [14]; AAH 310 g/ha): 5 (Herbicidal rate of 90% or more (almost completely withered))
I: wild oat, herbicidal effect (criteria 0-5) (wild oat [15]; AAH 310 g/ha): 2 (Herbicidal rate of 20% or more and less than 40%)
J: blackgrass, herbicidal effect (criteria 0-5) (blackgrass [16]; AAH 310 g/ha): 3 (Herbicidal rate of 40% or more and less than 70%)
K: Italian ryegrass, herbicidal effect (criteria 0-5) (Italian ryegrass [17]; AAH 310 g/ha): 5 (Herbicidal rate of 90% or more (almost completely withered))
L: windgrass, herbicidal effect (criteria 0-5) (windgrass [18]; AAH 310 g/ha): 0 (Herbicidal rate of 5% or less (almost no effect))
M: velvetleaf, herbicidal effect (criteria 0-5) (velvetleaf [19]; AAH 310 g/ha): 5 (Herbicidal rate of 90% or more (almost completely withered))
N: redroot pigweed, herbicidal effect (criteria 0-5) (redroot pigweed [20]; AAH 310 g/ha): 5 (Herbicidal rate of 90% or more (almost completely withered))
O: lambsquarters, herbicidal effect (criteria 0-5) (lambsquarters [21]; AAH 310 g/ha): 5 (Herbicidal rate of 90% or more (almost completely withered))
P: chickweed, herbicidal effect (criteria 0-5) (chickweed; AAH 310 g/ha): 5 (Herbicidal rate of 90% or more (almost completely withered))
R: persian speedwell, herbicidal effect (criteria 0-5) (persian speedwell; AAH 310 g/ha): 5 (Herbicidal rate of 90% or more (almost completely withered))
